Source: patent US11453690B2, “Receptor inhibitor, pharmaceutical composition comprising same, and use thereof” (BEIJING TIDE PHARMACEUTICAL CO., LTD., priority 2018, dated 2022)

Each compound was assayed against AT2 Receptor (AT2R) (Homo sapiens (Human), UniProt P50052) (assay: Measurement of inhibitory activity on AT2 receptor (Tag-lite HTRF, Tb-labeled AT2R cells, angiotensin receptor red agonist)). Details: 1 h room temperature.
AT2 Receptor (AT2R), sequence (P50052 whole entry): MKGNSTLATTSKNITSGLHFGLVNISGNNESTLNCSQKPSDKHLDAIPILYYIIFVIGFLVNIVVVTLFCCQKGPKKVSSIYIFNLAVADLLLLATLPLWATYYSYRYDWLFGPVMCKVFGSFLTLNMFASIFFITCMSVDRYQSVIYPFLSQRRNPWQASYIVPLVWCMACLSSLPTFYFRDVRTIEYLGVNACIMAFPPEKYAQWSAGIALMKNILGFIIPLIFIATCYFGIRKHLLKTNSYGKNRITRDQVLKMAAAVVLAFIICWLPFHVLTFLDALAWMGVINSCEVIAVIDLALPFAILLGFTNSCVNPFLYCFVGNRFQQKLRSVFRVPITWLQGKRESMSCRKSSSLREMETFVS
Type: binding
Experimental: Measurement of Inhibitory Activity on AT1 Receptor ([…])/AT2 Receptor (AT2R)
Through the following steps, the inhibitory activity of the compound on AT1R/AT2R (IC50 value) was determined:
1) An appropriate amount of 1×TLB (Tag-lite Buffer) was prepared and well mixed for use.
2) The compound was diluted by 10 times with ddH2O or DMSO. The compound was then dilute to 4 times of the working concentration with 1×TLB and mixed well for use.
3) 8600 nM Tag-lite angiotensin receptor red agonist was diluted to 12 nM (4×Kd) with 1×TLB.
4) 5 ml 1×TLB was taken into a 15 ml centrifuge tube.
5) After thawing 1 tube of Tb-labeled AT1R/AT2R cells in a 37° C. water bath, the cells were quickly transferred to the 1×TLB in step 4), mixed gently, and centrifuged at 1200 g for 5 minutes at room temperature.
6) The supernatant was aspirated gently, and the cells were resuspended and mixed in 2.7 ml 1×TLB, and then placed at room temperature until use.
7) 10 μl cells were added to all test wells, and 5 μl 4× working solution of the compound from step 2) was added to the corresponding test wells. 5 μl 4× Tag-lite angiotensin receptor red agonist well diluted in step 3) was added to all test wells.
8) After leaving the reaction plate at room temperature for 1 h, data were measured and analyzed using Envision HTRF Reader, and the half inhibitory concentration (IC50) of the compound on AT1R/AT2R was calculated with the GraphPad Prism four-parameter equation.
With `CN(Cc1ccc2ncccc2c1)C(=O)N1[C@H]2CC[C@@H]1[C@@H](C(=O)O)N(C(=O)N(c1ccccc1)c1ccccc1)C2` [Compound C266, (1R,2S,5S)-3-(diphenylcarbamoyl)-8-(methyl (quinoline-6-ylmethyl)carbamoyl)-3,8-diazabicyclo [3.2.1]octane-2-carboxylic acid] the IC50 was 1.63 nM.
For `O=C(O)[C@@H]1[C@H]2CC[C@@H](CN1C(=O)N(c1ccccc1)c1ccccc1)N2C(=O)N(Cc1ccsc1)CC1CC1` [Compound C205, (1R,2S,5S)-8-((cyclopropylmethyl) (thiophene-3-ylmethyl)carbamoyl)-3-(diphenylcarbamoyl)-3,8-diazabicyclo [3.2.1]octane-2-carboxylic acid], the IC50 was 42.8 nM.
Work on `CCN(Cc1csc(C)c1)C(=O)N1[C@H]2CC[C@@H]1[C@@H](C(=O)O)N(C(=O)N(c1ccccc1)c1ccccc1)C2` [Compound C208, (1R,2S,5S)-3-(diphenylcarbamoyl)-8-(ethyl((5-methylthiophen-3-yl)methyl)carbamoyl)-3,8-diazabicyclo [3.2.1]octane-2-carboxylic acid] yielded an IC50 of 11.8 nM.
Compound `O=C(O)[C@@H]1[C@H]2CC[C@@H](CN1C(=O)N(c1ccccc1)c1ccccc1)N2C(=O)N(c1ccccc1)c1ccccc1` [Compound C41, (1R,2S,5S)-3,8-bis (diphenylcarbamoyl)-3,8-diazabicyclo [3.2.1]octane-2-carboxylic acid] has an IC50 of 9.77 nM.
In the case of `O=C(O)[C@@H]1[C@H]2CC[C@@H](CN1C(=O)N(c1ccccc1)c1ccccc1)N2C(=O)Oc1ccccc1` [Compound C115, (1R,2S,5S)-3-(diphenylcarbamoyl)-8-(phenoxycarbonyl)-3,8-diazabicyclo [3.2.1]octane-2-carboxylic acid], the IC50 is reported as 431 nM.
In the case of `O=C(O)[C@@H]1[C@H]2CC[C@@H](CN1C(=O)N(c1ccccc1)c1ccccc1)N2C(=O)N(Cc1cccs1)C1CC1` [Compound C200, (1R,2S,5S)-8-(cyclopropyl (thiophene-2-ylmethyl)carbamoyl)-3-(diphenylcarbamoyl)-3,8-diazabicyclo [3.2.1]octane-2-carboxylic acid], the IC50 is reported as 3.25 nM.
With `O=C(O)[C@@H]1[C@H]2CC[C@@H](CN1C(=O)N(c1ccccc1)c1ccccc1)N2C(=O)N1CCC[C@@H]1c1ccccc1` [Compound C140, (1R,2S,5S)-3-(diphenylcarbamoyl)-8-((R)-2-phenylpyrrolidine-1-carbonyl)-3,8-diazabicyclo [3.2.1]octane-2-carboxylic acid] the IC50 was 5.49 nM.
In the case of `CC(C)N(Cc1ccccc1)C(=O)N1[C@H]2CC[C@@H]1[C@@H](C(=O)O)N(C(=O)N(c1ccccc1)c1ccccc1)C2` [Compound C152, (1R,2S,5S)-8-(benzyl (isopropyl)carbamoyl)-3-(diphenylcarbamoyl)-3,8-diazabicyclo [3.2.1]octane-2-carboxylic acid], the IC50 is reported as 47.4 nM.
`O=C(O)[C@@H]1[C@H]2CC[C@@H](CN1C(=O)C(c1ccccc1)c1ccccc1)N2C(=O)C(c1ccccc1)c1ccccc1` [Compound C3, (1R,2S,5S)-3,8-bis (2,2-diphenylacetyl)-3,8-diazabicyclo [3.2.1]octane-2-carboxylic acid] gave an IC50 of 13.9 nM.
`Cn1cc(-c2ccccc2C(=O)N2[C@H]3CC[C@@H]2[C@@H](C(=O)O)N(C(=O)N(c2ccccc2)c2ccccc2)C3)cn1` [Compound C241, (1R,2S,5S)-3-(diphenylcarbamoyl)-8-(2-(1-methyl-1H-pyrazole-4-yl)benzoyl)-3,8-diazabicyclo [3.2.1]octane-2-carboxylic acid] was tested, and the IC50 was 156 nM.
`CC(C)c1ccc(CN(C)C(=O)N2[C@H]3CC[C@@H]2[C@@H](C(=O)O)N(C(=O)N(c2ccccc2)c2ccccc2)C3)cc1` [Compound C214, (1R,2S,5S)-3-(diphenylcarbamoyl)-8-((4-isopropylbenzyl) (methyl)carbamoyl)-3,8-diazabicyclo [3.2.1]octane-2-carboxylic acid] showed an IC50 of 11.3 nM.
